Source: patent US6956047B1, “Corticotropin releasing factor antagonists” (Pfizer Inc., priority 1995, dated 2005)
Counter-ions that a name gives are not always drawn.

melting point | SMILES
85 to 88 °C | CCC(CC)Oc1cc(C)nc(Nc2c(C)cc(C)cc2C)c1CN(C)C.Cl
167 to 169 °C | CCCN(CC)c1cc(C)nc(Oc2c(C)cc(C)cc2C)c1C (as salt: HCl) [Example 72, [3,6-Dimethyl-2-(2,4,6-trimethyl-phenoxy)-pyridin-4-yl]-ethyl-propyl-amine]
180 to 181 °C | CCN(CC)c1cc(C)nc(Oc2c(C)cc(C)cc2C)c1C (as salt: HCl) [Example 73, [3,6-dimethyl-2-(2,4,6-trimethyl-phenoxy)-pyridin-4-yl]-diethyl-amine]
173 to 174 °C | CCN(C)c1cc(C)nc(Oc2c(C)cc(C)cc2C)c1C (as salt: HCl) [Example 74, [3,6-Dimethyl-2-(2,4,6-trimethyl-phenoxy)-pyridin-4-yl]-ethyl-methyl-amine]
177 to 178 °C | CCCCN(CC)c1cc(C)nc(Oc2c(C)cc(Cl)cc2C)c1C (as salt: HCl) [Example 76, Butyl-[2-(4-chloro-2,6-dimethyl-phenoxy)-3,6-dimethyl-pyridin-4-yl]-ethyl-amine]
74 to 76 °C | CCCN(CC)c1cc(C)nc(Oc2c(C)cc(Cl)cc2C)c1C (as salt: HCl) [Example 77, [2-(4-chloro-2,6-dimethyl-phenoxy)-3,6-dimethyl-pyridin-4-yl]-ethyl-propyl-amine]
184 to 185 °C | CCN(CC)c1cc(C)nc(Oc2c(C)cc(Cl)cc2C)c1C (as salt: HCl) [Example 78, [2-(4-chloro-2,6-dimethyl-phenoxy)-3,6-dimethyl-pyridin-4-yl]-diethyl-amine]
197 to 200 °C | CCC(CC)Oc1cc(C)nc(Nc2c(C)cc(C)cc2C)c1C(=O)N(C)C (as salt: HCl) [Example 193, 4-(1-Ethyl-propoxy)-6,N,N-trimethyl-2-(2,4,6-trimethyl-phenylamino)-nicotinamide]
128 to 130 °C | CCC(CC)Oc1nc(C)nc(Oc2c(C)cc(C)cc2C)c1C#N [Example 35, 4-(1-Ethyl-propoxy)-2-methyl-6-(2,4,6-trimethyl-phenoxy)-pyrimidine-5-carbonitrile]
58 to 60 °C | CCC(CC)Oc1cc(C)nc(Oc2c(C)cc(COC)cc2C)c1C [Example 67, 4-(1-Ethyl-propoxy)-2-(4-methoxymethyl-2,6-dimethyl-phenoxy)-3,6-dimethyl-pyridine]
108 to 110 °C | CCC(CC)Nc1cc(C)nc(Sc2c(C)cc(C)cc2C)c1C [Example 69, [3,6-Dimethyl-2-(2,4,6-trimethyl-phenylsulfanyl)-pyridin-4-yl]-(1-ethyl-propyl)-amine]
114 to 116 °C | CCNc1cc(C)nc(Sc2c(C)cc(C)cc2C)c1C [Example 71, [3,6-dimethyl-2-(2,4,6-trimethyl-phenylsulfanyl)-pyridin-4-yl]-ethyl-amine]
72 to 74 °C | CCC(CC)Nc1cc(C)nc(Oc2c(C)cc(Cl)cc2C)c1N [Example 97, 2-(4-Chloro-2,6-dimethyl-phenoxy)-N4-(1-ethyl-propyl)-6-methyl-pyridine-3,4-diamine]
154 to 156 °C | CCC(CC)Nc1cc(C)nc(Oc2c(C)cc(C)cc2C)c1NC(C)=O [Example 98, N-[4-(1-Ethyl-propylamino)-6-methyl-2-(2,4,6-trimethyl-phenoxy)-pyridin-3-yl]-acetamide]
126.5 to 130.5 °C | CCC(COC)Nc1cc(C)nc(Oc2c(C=O)cccc2OC)c1[N+](=O)[O-] (stereo not drawn) [Example 114, 3-Methoxy-2-[4-(1-methoxymethyl-propylamino)-6-methyl-3-nitro-pyridin-2-yloxy]-benzaldehyde]
126.8 to 129.5 °C | CCC(COC)Nc1cc(C)nc(Oc2c(OC)cc(OC)cc2OC)c1[N+](=O)[O-] (stereo not drawn) [Example 114, (1-Methoxymethyl-propyl)-[6-methyl-3-nitro-2-(2,4,6-trimethoxy-phenoxy)-pyridin-4-yl]-amine]
180 to 182 °C | CCC(Nc1cc(C)nc(Oc2c(C)cc(Cl)cc2C)c1CO)C(C)O (stereo not drawn) [Example 138, 3-[2-(4-Chloro-2,6-dimethyl-phenoxy)-3-hydroxymethyl-6-methyl-pyridin-4-ylamino]-pentan-2-ol]
145 to 148 °C | CCC(O)C(CC)Nc1cc(C)nc(Oc2c(C)cc(Cl)cc2C)c1CO (stereo not drawn) [Example 139, 4-[2-(4-Chloro-2,6-dimethyl-phenoxy)-3-hydroxymethyl-6-methyl-pyridin-4-ylamino]-hexan-3-ol]

melting point | SMILES
131 to 133 °C | C#CC(CC)Nc1cc(C)nc(Oc2c(C)cc(C)cc2C)c1C(=O)O (stereo not drawn) [Example 140, 4-(1-Ethyl-prop-2-ynylamino)-6-methyl-2-(2,4,6-trimethyl-phenoxy)-nicotinic acid]
106 to 109 °C | CCC(CC)Oc1cc(C)nc(Oc2c(C)cc(C)cc2C)c1[N+](=O)[O-] [Example 173, 4-(1-Ethyl-propoxy)-6-methyl-3-nitro-2-(2,4,6-trimethyl-phenoxy)-pyridine]
120 to 122 °C | CCC(CC)Oc1cc(C)nc(Nc2c(C)cc(C)cc2C)c1C(=O)n1ccnc1 [Example 183, [4-(1-Ethyl-propoxy)-6-methyl-2-(2,4,6-trimethyl-phenylamino)-pyridin-3-yl]-imidazol-1-yl-methanone]
96 to 98 °C | CCC(CC)Oc1cc(C)nc(Nc2c(C)cc(C)cc2C)c1CC(C(=O)OC)C(=O)OC [Example 185, 2-[4-(1-Ethyl-propoxy)-6-methyl-2-(2,4,6-trimethyl-phenylamino)-pyridin-3-ylmethyl]-malonic acid dimethyl ester]
142 to 144 °C | CCC(CC)Oc1cc(C)nc(Nc2c(C)cc(C)cc2C)c1CNC(=O)CCl [Example 188, 2-Chloro-N-[4-(1-ethyl-propoxy)-6-methyl-2-(2,4,6-trimethyl-phenylamino)-pyridin-3-ylmethyl]-acetamide]
55 to 57 °C | CCOC(=S)SCc1c(OC(CC)CC)cc(C)nc1Nc1c(C)cc(C)cc1C [Example 190, Dithiocarbonic acid O-ethyl ester S-[4-(1-ethyl-propoxy)-6-methyl-2-(2,4,6-trimethyl-phenylamino)-pyridin-3-ylmethyl] ester]
98 to 100 °C | CCC(CC)Oc1cc(C)nc(Nc2c(C)cc(C)cc2C)c1 [Example 203, [4-(1-Ethyl-propoxy)-6-methyl-pyridin-2-yl]-(2,4,6-trimethyl-phenyl)-amine]
134 to 139 °C | Cc1cc(C)c(Oc2nc(C)cc(C(O)C(F)(F)F)c2C)c(C)c1 (stereo not drawn) [Example 212, 1-[3,6-Dimethyl-2-(2,4,6-trimethyl-phenoxy)-pyridin-4-yl]-2,2,2-trifluoro-ethanol]
204 to 206 °C | CCC(CC)Nc1cc(C)nc(Nc2c(C)cc(C)cc2C)c1C(N)=O [Example 232, 4-(1-Ethyl-propylamino)-6-methyl-2-(2,4,6-trimethyl-phenylamino)-nicotinamide]
174 to 176 °C | CCC(CC)Oc1nc(C)nc(Nc2c(C)cc(C)cc2C)c1C(N)=O [Example 233, 4-(1-Ethyl-propoxy)-2-methyl-6-(2,4,6-trimethyl-phenylamino)-pyrimidine-5-carboxylic acid amide]
79 to 82 °C | CCC(CC)Oc1cc(C)nc(Nc2c(C)cc(C)cc2C)c1NC(=O)CCl [Example 237, 2-Chloro-N-[4-(1-ethyl-propoxy)-6-methyl-2-(2,4,6-trimethyl-phenylamino)-pyridin-3-yl]-acetamide]
117 to 119 °C | CCC(CC)Nc1cc(C)nc(Oc2c(C)cc(C)cc2C)c1CN [Example 248, [3-Aminomethyl-6-methyl-2-(2,4,6-trimethyl-phenoxy)-pyridin-4-yl]-(1-ethyl-propyl)-amine]
118 to 120 °C | CCC(CC)Oc1nc(C)nc(Nc2c(C)cc(C)cc2C)c1C(=O)O [Example 273, 4-(1-Ethyl-propoxy)-2-methyl-6-(2,4,6-trimethyl-phenylamino)-pyrimidine-5-carboxylic acid]
121 to 123 °C | CCC(CC)Oc1nc(C)nc(Nc2c(C)cc(C)cc2C)c1CO [Example 274, [4-(1-Ethyl-propoxy)-2-methyl-6-(2,4,6-trimethyl-phenylamino)-pyrimidin-5-yl]-methanol]
184 to 186 °C | CCC(CC)Oc1cc(C)nc2c1[nH]c(=O)n2-c1c(C)cc(C)cc1C [Example 279, 7-(1-Ethyl-propoxy)-5-methyl-3-(2,4,6-trimethyl-phenyl)-1,3-dihydro-imidazo[4,5-b]pyridin-2-one]
151 to 153 °C | CCC(CC)Oc1cc(C)nc2c1n(C)c(=O)n2-c1c(C)cc(C)cc1C [Example 280, 7-(1-Ethyl-propoxy)-1,5-dimethyl-3-(2,4,6-trimethyl-phenyl)-1,3-dihydro-imidazo[4,5-b]pyridin-2-one]
101 to 103 °C | CCC(CC)Nc1cc(C)nc2c1nc(C)n2-c1c(C)cc(C)cc1C [Example 282, [2,5-Dimethyl-3-(2,4,6-trimethyl-phenyl)-3H-imidazo[4,5-b]pyridin-7-yl]-(1-ethyl-propyl)-amine]
158 to 160 °C | CCC(CC)Nc1cc(C)nc2c1nc(N)n2-c1c(C)cc(C)cc1C [Example 283, N7-(1-Ethyl-propyl)-5-methyl-3-(2,4,6-trimethyl-phenyl)-3H-imidazo[4,5-b]pyridine-2,7-diamine]
